Assays:
[1] = system: HepG2; assay: relative viability EC50 (midpoint between 100% and the lowest measured viability); higher = less toxic; conditions: 72 h
[2] = system: Calu-3; assay: as above; conditions: 72 h
[3] = system: U2OS; assay: as above; conditions: 72 h
[4] = system: Caco-2; assay: as above; conditions: 72 h
[5] = system: Vero E6; assay: as above; conditions: 72 h
[6] = system: A549-ACE2 infected with SARS-CoV-2; assay: morphology score (similarity to uninfected cells); higher = more like uninfected cells; conditions: 24 h
[7] = system: A549-ACE2 infected with SARS-CoV-2; assay: cell count relative to DMSO; higher = less toxic; conditions: 24 h
[8] = system: HepG2; assay: drug sensitivity score (DSS) for viability; higher = more toxic; extreme values may be limits of the assay; conditions: 72 h
[9] = system: Calu-3; assay: as above; conditions: 72 h
[10] = system: U2OS; assay: as above; conditions: 72 h
[11] = system: Caco-2; assay: as above; conditions: 72 h
[12] = system: Vero E6; assay: as above; conditions: 72 h
[13] = system: HepG2; assay: cell viability relative to DMSO; higher = less toxic; conditions: 72 h
[14] = system: Calu-3; assay: as above; conditions: 72 h
[15] = system: U2OS; assay: as above; conditions: 72 h
[16] = system: Caco-2; assay: as above; conditions: 72 h
[17] = system: Vero E6; assay: as above; conditions: 72 h
[18] = system: A549-ACE2; assay: drug-induced phospholipidosis relative to tamoxifen; higher = more phospholipidosis
[19] = system: A549-ACE2 infected with SARS-CoV-2; assay: SARS-CoV-2 infection rate relative to DMSO; higher = more infection; conditions: 24 h

c1ccc(-c2ccc(C(c3ccccc3)n3ccnc3)cc2)cc1 (stereo not drawn) [bifonazole]
Conditions | drug sensitivity score | relative viability EC50 [µM]
[1] | – | > 10
[2] | – | > 10
[3] | – | > 10
[4] | – | > 10
[5] | – | > 10
[8] | 0 | –
[9] | 0 | –
[10] | 0 | –
[11] | 1.2 | –
[12] | 0 | –

Conditions | SARS-CoV-2 infection rate, [19] [%] | cell count, [7] [%] | cell viability, [13] [%] | cell viability, [14] [%] | cell viability, [15] [%] | cell viability, [16] [%] | cell viability, [17] [%] | morphology score, [6]
1 nM | – | – | 98.2 | 98.4 | 96.9 | 98 | 85.9 | –
10 nM | – | – | 97.1 | 95 | 95.9 | 99.7 | 91.2 | –
100 nM | – | – | 91.8 | 106 | 97.2 | 96.1 | 86.5 | –
0.3 µM | 91 | 99 | – | – | – | – | – | 0.26
1000 nM | – | – | 98.6 | 97.1 | 95.2 | 94.9 | 91.5 | –
3 µM | 103 | 112 | – | – | – | – | – | -0.04
10 µM | 106 | 111 | – | – | – | – | – | 0.19
10000 nM | – | – | 93.6 | 99.1 | 94.7 | 78.7 | 100 | –
30 µM | 89 | 102 | – | – | – | – | – | 0.57

drug-induced phospholipidosis [%], [18]
Conditions | 0.3 µM | 0.833333 µM | 3.33333 µM | 6.66667 µM | 10 µM | 30 µM
24 h | -0.45 | -9.45 | -4.39 | 3.56 | 6 | 40.1
48 h | 3.19 | -4.19 | 2.93 | 5.02 | 14.4 | 44.7
72 h | 2.27 | -1.31 | 4.12 | 5.49 | 19.7 | –

CC(C)C[C@H](NC(=O)CNC(=O)c1cc(Cl)ccc1Cl)B1OC(=O)C(CC(=O)O)(CC(=O)O)O1 [MLN9708]
Conditions | drug sensitivity score | relative viability EC50 [µM]
[1] | – | 0.139
[8] | 22.1 | –
[9] | 27.3 | –
[10] | 24.7 | –
[11] | 28.8 | –
[12] | 23.8 | –

Conditions | SARS-CoV-2 infection rate, [19] [%] | cell count, [7] [%] | cell viability, [13] [%] | cell viability, [14] [%] | cell viability, [15] [%] | cell viability, [16] [%] | cell viability, [17] [%] | morphology score, [6]
1 nM | – | – | 89.6 | 95.1 | 101 | 99.6 | 97 | –
10 nM | – | – | 104 | 95.1 | 95.8 | 94.6 | 99.5 | –
0.1 µM | 88 | 88 | – | – | – | – | – | 0.35
100 nM | – | – | 65 | 19.6 | 43.2 | 11.4 | 44.1 | –
0.3 µM | 83 | 78 | – | – | – | – | – | 0.28
1 µM | 48 | 65 | – | – | – | – | – | 0.27
1000 nM | – | – | 4.3 | 6.6 | 0.5 | 5.1 | 10.5 | –
3 µM | 33 | 57 | – | – | – | – | – | 0.28
10000 nM | – | – | 0.5 | 5.2 | 0 | 5 | 4.8 | –

[18], 24 h
Conditions | drug-induced phospholipidosis [%]
0.3 µM | 4.58
0.833333 µM | -2.83

O=C(c1ccc(/C=C/c2n[nH]c3ccccc23)cc1)N1CCNCC1 [KW-2449]
Conditions | drug sensitivity score | relative viability EC50 [µM]
[4] | – | > 10
[5] | – | > 10
[8] | 2.2 | –
[10] | 1.7 | –
[11] | 0 | –
[12] | 0 | –

Conditions | SARS-CoV-2 infection rate, [19] [%] | cell count, [7] [%] | cell viability, [13] [%] | cell viability, [15] [%] | cell viability, [16] [%] | cell viability, [17] [%] | morphology score, [6]
1 nM | – | – | 102 | 103 | 98.7 | 103 | –
10 nM | – | – | 108 | 102 | 98.6 | 104 | –
100 nM | – | – | 98.6 | 101 | 97.2 | 99.3 | –
0.3 µM | 98 | 105 | – | – | – | – | 0.33
1000 nM | – | – | 94.6 | 100 | 99 | 101 | –
3 µM | 79 | 59 | – | – | – | – | 0.51
10 µM | 26 | 39 | – | – | – | – | 0.62
10000 nM | – | – | 69.6 | 63.1 | 108 | 95.3 | –
30 µM | 40 | 1 | – | – | – | – | 0.12

drug-induced phospholipidosis [%], [18]
Conditions | 0.3 µM | 0.833333 µM | 3.33333 µM | 6.66667 µM | 10 µM
24 h | -0.51 | -0.69 | 3.6 | 13.3 | 8.57
48 h | -1.26 | -3.23 | 0.95 | 9.27 | 0.37
72 h | -0.724 | -3.37 | – | – | –

CC(=O)N(O)[C@@H]1c2cc(C#N)ccc2OC(C)(C)[C@H]1O
Conditions | drug sensitivity score | relative viability EC50 [µM]
[1] | – | > 10
[2] | – | > 10
[4] | – | > 10
[5] | – | > 10
[8] | 0 | –
[9] | 0 | –
[11] | 0 | –
[12] | 0 | –

Conditions | SARS-CoV-2 infection rate, [19] [%] | cell count, [7] [%] | cell viability, [13] [%] | cell viability, [14] [%] | cell viability, [16] [%] | cell viability, [17] [%] | morphology score, [6]
1 nM | – | – | 101 | 103 | 102 | 94.6 | –
10 nM | – | – | 108 | 90.8 | 86.8 | 102 | –
100 nM | – | – | 95.8 | 89.9 | 93.1 | 96.5 | –
0.3 µM | 93 | 105 | – | – | – | – | 0.26
1000 nM | – | – | 107 | 102 | 104 | 102 | –
3 µM | 77 | 107 | – | – | – | – | 0.56
10 µM | 40 | 119 | – | – | – | – | 0.81
10000 nM | – | – | 105 | 95.2 | 99.7 | 95.6 | –
30 µM | 36 | 116 | – | – | – | – | 0.82

drug-induced phospholipidosis [%], [18]
Conditions | 0.3 µM | 0.833333 µM | 3.33333 µM | 6.66667 µM | 10 µM | 30 µM
24 h | 5.83 | -1.4 | -3.17 | 0.06 | -1.41 | 3.58
48 h | 5.86 | -0.55 | -0.21 | -2.36 | -0.04 | 3.92
72 h | 1.36 | -4.06 | -1.89 | -2.87 | 0.112 | 6.24

COc1cc(NC(C)CCCN)c2ncccc2c1 (stereo not drawn) [primaquine]
Conditions | drug sensitivity score | relative viability EC50 [µM]
[1] | – | > 10
[2] | – | > 10
[3] | – | > 10
[4] | – | 2.25
[5] | – | > 10
[8] | 0.3 | –
[9] | 0.8 | –
[10] | 0 | –
[11] | 4 | –
[12] | 0 | –

Conditions | SARS-CoV-2 infection rate, [19] [%] | cell count, [7] [%] | cell viability, [13] [%] | cell viability, [14] [%] | cell viability, [15] [%] | cell viability, [16] [%] | cell viability, [17] [%] | morphology score, [6]
1 nM | – | – | 122 | 104 | 103 | 103 | 108 | –
10 nM | – | – | 107 | 90.7 | 102 | 108 | 105 | –
100 nM | – | – | 108 | 106 | 102 | 91.8 | 99.7 | –
0.3 µM | 97 | 102 | – | – | – | – | – | -0.01
1000 nM | – | – | 110 | 100 | 101 | 93.9 | 102 | –
10000 nM | – | – | 80.3 | 76.9 | 88.9 | 45.2 | 89.9 | –

[18], 0.3 µM
Conditions | drug-induced phospholipidosis [%]
24 h | 2.39
48 h | 2.15
72 h | 2.76

Reference: the supplement of paper PMC13380429
